Read-outs that look alike come from different tables or passages of the source.
Legend:
human GCGR = human GCGR (Homo sapiens (Human), UniProt P47871); experiment: Cellular functional assay, cAMP readout (glucagon-stimulated cAMP in HEK293 cells expressing human GCGR); format: cell-based; details: hGluc-1 HEK cells, LANCE TR-FRET, IC50 converted to Ki, average if tested more than once
In short: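 HEK293 cells stably transfected with full-length human GCGR were exposed to compound for 30 min before a 5-min challenge with […] (final) glucagon. Readout was TR-FRET (LANCE) cAMP versus standard curve; IC50s fitted by non-linear regression and converted to Ki values.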

[1] = biological target: human glucagon receptor (GCGR) (Homo sapiens (Human), UniProt P47871); experiment: Inhibition of 125I-glucagon binding to membranes from HEK293 cells expressing the human glucagon receptor
human glucagon receptor (GCGR), sequence (P47871 26-477): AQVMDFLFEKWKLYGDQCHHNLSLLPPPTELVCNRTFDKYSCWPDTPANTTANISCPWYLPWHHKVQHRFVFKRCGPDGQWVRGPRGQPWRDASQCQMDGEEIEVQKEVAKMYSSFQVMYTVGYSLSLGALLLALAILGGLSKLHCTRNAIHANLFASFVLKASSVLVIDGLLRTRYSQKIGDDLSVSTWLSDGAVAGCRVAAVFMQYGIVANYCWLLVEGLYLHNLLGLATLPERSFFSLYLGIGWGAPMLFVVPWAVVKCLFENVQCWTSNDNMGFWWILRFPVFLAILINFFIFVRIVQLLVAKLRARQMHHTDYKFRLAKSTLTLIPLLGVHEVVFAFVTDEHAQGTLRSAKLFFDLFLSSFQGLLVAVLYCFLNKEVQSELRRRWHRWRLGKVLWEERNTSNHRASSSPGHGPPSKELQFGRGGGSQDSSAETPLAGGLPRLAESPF
Description: Inhibition ^125I-Glucagon Binding to Membranes from HEK293 Cells Expressing the Human Glucagon Receptor (GCGR)
Full-length human GCGR (Accession Number: NM000160) subcloned into pcDNA3.1 was stably transfected into HEK293 cells (hGluc-1 HEK) and maintained under G418 selection (500 μg/mL). Cell cultures were maintained in DMEM/F12 media supplemented with 10% FBS and 1% GlutaMax. Membranes were prepared from these cells as follows: cells were harvested from T225 flasks and re-suspended in hypotonic lysis buffer, 50 mM HEPES pH 7.4 supplemented with Complete Protease inhibitors (Boehringer Mannheim, Indianapolis, Ind.). Cells were dounced 20 times on ice and spun at 700×g to remove nuclei and unlysed cells. The resulting pellet was re-suspended in hypotonic lysis buffer and the above step was repeated. Supernatants from the low speed centrifugation were combined and subsequently spun at 100K×g for 1 hr at 4° C. and the resulting pellet was re-suspended in buffer containing 50 mM HEPES pH 7.4 and 10% sucrose and the protein concentration was adjusted at 1 mg/mL as determined in the BCA assay. Membranes were aliquoted and stored at −80° C. The binding assay was performed by a filtration method in a 384 well format. Membranes at a final protein concentration of 6 μg/well were incubated with ^125I-glucagon at 0.3 nM and in the presence of compound for 2 hours at room temperature in a total reaction volume of 40 μL per well. Assay buffer consisted of 50 mM HEPES, pH 7.4, 5 mM MgCl2, 1 mM CaCl2 and 0.2% BSA. 30 μL of the reaction was then transferred to PEI treated filter plates and followed by filter aspiration. Plates were then washed 5× and allowed to dry at room temperature overnight. The next day the bottom of the plate was covered with seal tape and scintillant was added. Total counts retained by the filters were quantified with a Top Count instrument. IC50's were generated by using a non-linear regression macro driven in Excel and converted to K's.

[2] = membranes of hGluc-1 HEK cells, 125I-glucagon 0.3 nM, 2 hours room temperature, IC50 converted to Ki, average if tested more than once

human GCGR, sequence (P47871 26-477): as above

O=C(O)CCNC(=O)c1ccc(-c2cc(C(F)(F)F)ccc2CNc2ccc(-c3ccc(F)c(Cl)c3)c(Cl)c2)cn1 [Compound 35, 3-(5-(2-(((2,3′-dichloro-4′-fluoro-[1,1′-biphenyl]-4-yl)amino)methyl)-5-(trifluoromethyl)phenyl)picolinamido)propanoic acid] showed a Ki (human GCGR) of 35 nM and a Ki [1, 2] of 14.4 nM.

In the case of O=C(O)CCNC(=O)c1ccc(-c2cc(Cl)ccc2C(=O)Nc2ccc(-c3ccc(F)cc3F)cc2)cn1 [Compound 36, 3-(5-(5-chloro-2-((2′,4′-difluoro-[1,1′-biphenyl]-4-yl)carbamoyl)phenyl)picolinamido)propanoic acid], the Ki (human GCGR) is reported as 95.1 nM and the Ki [1, 2] is reported as 67.3 nM.

With O=C(O)CCNC(=O)c1ccc(-c2cc(C(F)(F)F)ccc2CNc2ccc(-c3ccc(Cl)cc3F)c(Cl)c2)cn1 [Compound 37, 3-(5-(2-(((2,4′-dichloro-2′-fluoro-[1,1′-biphenyl]-4-yl)amino)methyl)-5-(trifluoromethyl)phenyl)picolinamido)propanoic acid] the Ki (human GCGR) was 30 nM and the Ki [1, 2] was 23.2 nM.

Work on O=C(O)CCNC(=O)c1ccc(-c2cc(C(F)(F)F)ccc2CNc2ccc(-c3cccc(C(F)(F)F)c3Cl)c(Cl)c2)cn1 [Compound 38, 3-(5-(2-(((2,2′-dichloro-3′-(trifluoromethyl)-[1,1′-biphenyl]-4-yl)amino)methyl)-5-(trifluoromethyl)phenyl)picolinamido)propanoic acid] yielded a Ki (human GCGR) of 22.4 nM and a Ki [1, 2] of 22.5 nM.

With O=C(O)CCNC(=O)c1ccc(-c2cc(C(F)(F)F)ccc2CNc2ccc(-c3ccc(C(F)(F)F)c(F)c3)c(Cl)c2)cn1 [Compound 39, 3-(5-(2-(((2-chloro-3′-fluoro-4′-(trifluoromethyl)-[1,1′-biphenyl]-4-yl)amino)methyl)-5-(trifluoromethyl)phenyl)picolinamido)propanoic acid] the Ki (human GCGR) was 47.4 nM and the Ki [1, 2] was 26.6 nM.

O=C(O)CCNC(=O)c1ccc(-c2cc(C(F)(F)F)ccc2CNc2ccc(-c3ccc(Cl)cc3F)cc2)cn1 [Compound 40, 3-(5-(2-(((4′-chloro-2′-fluoro-[1,1′-biphenyl]-4-yl)amino)methyl)-5-(trifluoromethyl)phenyl)picolinamido)propanoic acid] was tested, and the Ki (human GCGR) was 64.2 nM and the Ki [1, 2] was 26.3 nM.

O=C(O)CCNC(=O)c1ccc(-c2cc(C(F)(F)F)ccc2CNc2ccc(-c3cccc(C(F)(F)F)c3Cl)cc2)cn1 [Compound 41, 3-(5-(2-(((2′-chloro-3′-(trifluoromethyl)-[1,1′-biphenyl]-4-yl)amino)methyl)-5-(trifluoromethyl)phenyl)picolinamido)propanoic acid] was tested, and the Ki (human GCGR) was 28.3 nM and the Ki [1, 2] was 20.4 nM.

Molecule O=C(O)CCNC(=O)c1ccc(-c2cc(C(F)(F)F)ccc2CNc2ccc(-c3ccc(C(F)(F)F)cc3Cl)c(Cl)c2)cn1 [Compound 42, 3-(5-(2-(((2,2′-dichloro-4′-(trifluoromethyl)-[1,1′-biphenyl]-4-yl)amino)methyl)-5-(trifluoromethyl)phenyl)picolinamido)propanoic acid] has a Ki (human GCGR) of 20 nM and a Ki [1, 2] of 16.5 nM.

For Cc1cc(C(F)(F)F)ccc1-c1ccc(NCc2ccc(C(F)(F)F)cc2-c2ccc(C(=O)NCCC(=O)O)nc2)cc1Cl [Compound 43, 3-(5-(2-(((2-chloro-2′-methyl-4′-(trifluoromethyl)-[1,1′-biphenyl]-4-yl)amino)methyl)-5-(trifluoromethyl)phenyl)picolinamido)propanoic acid], the Ki (human GCGR) was 21.9 nM and the Ki [1, 2] was 17.2 nM.

In the case of O=C(O)CCNC(=O)c1ccc(-c2cc(C(F)(F)F)ccc2CNc2ccc(-c3ccc(Cl)cc3)cc2)cn1 [Compound 44, 3-(5-(2-(((4′-chloro-[1,1′-biphenyl]-4-yl)amino)methyl)-5-(trifluoromethyl)phenyl)picolinamido)propanoic acid], the Ki (human GCGR) is reported as 60.1 nM and the Ki [1, 2] is reported as 18.4 nM.

Work on O=C(O)CCNC(=O)c1ccc(-c2cc(Cl)ccc2CNc2ccc(-c3ccc(Cl)cc3Cl)c(Cl)c2)cn1 [Compound 51, 3-(5-(5-chloro-2-(((2,2′,4′-trichloro-[1,1′-biphenyl]-4-yl)amino)methyl)phenyl)picolinamido)propanoic acid] yielded a Ki (human GCGR) of 34.1 nM and a Ki [1, 2] of 16.8 nM.

Work on O=C(O)CCNC(=O)c1ccc(-c2cc(F)ccc2CNc2ccc(-c3ccc(Cl)c(Cl)c3)c(F)c2)cn1 [Compound 53, 3-(5-(2-(((3′,4′-dichloro-2-fluoro-[1,1′-biphenyl]-4-yl)amino)methyl)-5-fluorophenyl)picolinamido)propanoic acid] yielded a Ki (human GCGR) of 495 nM and a Ki [1, 2] of 103 nM.

For COc1cc(NCc2ccc(Cl)cc2-c2ccc(C(=O)NCCC(=O)O)nc2)ccc1-c1ccc(C(F)(F)F)cc1 [Compound 54, 3-(5-(5-chloro-2-(((2-methoxy-4′-(trifluoromethyl)-[1,1′-biphenyl]-4-yl)amino)methyl)phenyl)picolinamido)propanoic acid], the Ki (human GCGR) was 220 nM and the Ki [1, 2] was 48.5 nM.

O=C(O)CCNC(=O)c1ccc(-c2cc(Cl)ccc2CNc2ccc(-c3ccc(Cl)c(Cl)c3)c(C(F)(F)F)c2)cn1 [Compound 55, 3-(5-(5-chloro-2-(((3′,4′-dichloro-2-(trifluoromethyl)-[1,1′-biphenyl]-4-yl)amino)methyl)phenyl)picolinamido)propanoic acid] was tested, and the Ki (human GCGR) was 650 nM and the Ki [1, 2] was 156 nM.

With O=C(O)CCNC(=O)c1ccc(-c2cc(F)ccc2CNc2ccc(-c3ccc(C(F)(F)F)cc3)c(F)c2)cn1 [Compound 56, 3-(5-(5-fluoro-2-(((2-fluoro-4′-(trifluoromethyl)-[1,1′-biphenyl]-4-yl)amino)methyl)phenyl)picolinamido)propanoic acid] the Ki (human GCGR) was 309 nM and the Ki [1, 2] was 98.8 nM.

O=C(O)CCNC(=O)c1ccc(-c2cc(F)ccc2CNc2ccc(-c3ccc(Cl)cc3Cl)c(F)c2)cn1 [Compound 57, 3-(5-(2-(((2′,4′-dichloro-2-fluoro-[1,1′-biphenyl]-4-yl)amino)methyl)-5-fluorophenyl)picolinamido)propanoic acid] was tested, and the Ki (human GCGR) was 205 nM and the Ki [1, 2] was 74.2 nM.

Work on O=C(O)CCNC(=O)c1ccc(-c2cc(Cl)ccc2CNc2ccc(-c3ccc(Cl)c(Cl)c3)cc2)cn1 [Compound 58, 3-(5-(5-chloro-2-(((3′,4′-dichloro-[1,1′-biphenyl]-4-yl)amino)methyl)phenyl)picolinamido)propanoic acid] yielded a Ki (human GCGR) of 58.4 nM and a Ki [1, 2] of 47.3 nM.

CC(C)(C)c1ccc(-c2ccc(NCc3ccc(Cl)cc3-c3ccc(C(=O)NCCC(=O)O)nc3)cc2)cc1 [Compound 59, 3-(5-(2-(((4′-(tert-butyl)-[1,1′-biphenyl]-4-yl)amino)methyl)-5-chlorophenyl)picolinamido)propanoic acid] showed a Ki (human GCGR) of 320 nM and a Ki [1, 2] of 72.4 nM.

For COc1ccc(-c2ccc(C(=O)NCCC(=O)O)nc2)c(CNc2ccc(-c3ccc(Cl)cc3Cl)cc2)c1 [Compound 60, 3-(5-(2-(((2′,4′-dichloro-[1,1′-biphenyl]-4-yl)amino)methyl)-4-methoxyphenyl)picolinamido)propanoic acid], the Ki (human GCGR) was 1370 nM and the Ki [1, 2] was 194 nM.

For COc1ccc(-c2ccc(C(=O)NCCC(=O)O)nc2)c(CNc2ccc(-c3ccc(Cl)c(Cl)c3)cc2)c1 [Compound 61, 3-(5-(2-(((3′,4′-dichloro-[1,1′-biphenyl]-4-yl)amino)methyl)-4-methoxyphenyl)picolinamido)propanoic acid], the Ki (human GCGR) was 479 nM and the Ki [1] was 97.7 nM.

Work on O=C(O)CCNC(=O)c1ccc(-c2cc(C(F)(F)F)ccc2CNc2ccc(-c3cccc(F)c3)cc2)cn1 [Compound 62, 3-(5-(2-(((3′-fluoro-[1,1′-biphenyl]-4-yl)amino)methyl)-5-(trifluoromethyl)phenyl)picolinamido)propanoic acid] yielded a Ki (human GCGR) of 175 nM and a Ki [1, 2] of 37.4 nM.

O=C(O)CCNC(=O)c1ccc(-c2cc(Cl)ccc2CNc2ccc(-c3ccc(F)cc3F)c(Cl)c2)cn1 [Compound 63, 3-(5-(5-chloro-2-(((2-chloro-2′,4′-difluoro-[1,1′-biphenyl]-4-yl)amino)methyl)phenyl)picolinamido)propanoic acid] gave a Ki (human GCGR) of 188 nM and a Ki [1, 2] of 22.6 nM.

Cc1cccc(-c2ccc(C(=O)NCCC(=O)O)nc2)c1CNc1ccc(-c2ccc(Cl)cc2)cc1 [Compound 65, 3-(5-(2-(((4′-chloro-[1,1′-biphenyl]-4-yl)amino)methyl)-3-methylphenyl)picolinamido)propanoic acid] gave a Ki (human GCGR) of 390 nM and a Ki [1, 2] of 139 nM.

Work on N#Cc1cccc(CNc2ccc(-c3ccc(Cl)cc3)cc2)c1-c1ccc(C(=O)NCCC(=O)O)nc1 [Compound 66, 3-(5-(2-(((4′-chloro-[1,1′-biphenyl]-4-yl)amino)methyl)-6-cyanophenyl)picolinamido)propanoic acid] yielded a Ki (human GCGR) of 1850 nM and a Ki [1, 2] of 68.7 nM.

From patent US8748624B2, “Picolinamido-propanoic acid derivatives useful as glucagon receptor antagonists” (Janssen Pharmaceutica NV, priority 2011, dated 2014)
